Experiments:
Details in all cases: 72 h
LAMA-84 = assay: cell viability (% survival relative to DMSO control, bortezomib = 0%); higher = less cytotoxic
In short: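 Percent survival figures are means of duplicate wells. They were obtained by CellTiter-Glo luminescence after 10 AML and 5 CML cell lines spent 72 h at 37 °C with 5% CO2 in 384-well plates with compounds at 1, 10, 100, 1000 or 10000 nM. Vehicle was set to 100% and a 10 µM positive control to 0%.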

[1] = tested on: myeloid leukemia patient primary cells Pat.12; assay: cell viability (% survival relative to DMSO control); higher = less cytotoxic
In short: (§1)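 Where an area under the curve appears, it was computed with the drc and PharmacoGx R packages from log-logistic fits. Those fits used four parameters. The underlying viability data came from CellTiter-Glo after 72 h, normalised to DMSO and 10 μM proteasome-inhibitor wells, with thawed, Ficoll-purified AML or CML patient mononuclear cells at 10,000 cells/well in RPMI 1640 with 10% FBS on 384-well plates pre-printed with 70 compounds at five tenfold concentrations (1–10,000 nM) in duplicate.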

[2] = tested on: myeloid leukemia patient primary cells Pat.11; assay: as above
In short: as §1

[3] = tested on: myeloid leukemia patient primary cells Pat.15; assay: as above
In short: as §1

[4] = tested on: myeloid leukemia patient primary cells Pat.10; assay: as above
In short: as §1

[5] = tested on: myeloid leukemia patient primary cells Pat.6; assay: as above
In short: as §1

HL-60 = assay: cell viability (% survival relative to DMSO control); higher = less cytotoxic
In short: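 HL-60 cells grown in RPMI 1640 with 10% FBS were rescreened against the full library in 384-well plates, in duplicate, at five tenfold concentrations from 1 to 10,000 nM, alongside DMSO or 100 nM of one of three metabolic inhibitors for 72 h at 37 °C, 5% CO2. Reference wells contained DMSO or 10 μM proteasome inhibitor. Viability was read with CellTiter-Glo and normalised to these reference wells, and where reported, area under the curve was taken from four-parameter log-logistic fits in drc and PharmacoGx.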

[6] = tested on: myeloid leukemia patient primary cells Pat.13; assay: area under dose-response curve (viability, 1 nM-10 uM) (fraction (0-1)); higher = more sensitive
Experimental: (§2)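 AUC (0–1, higher = more sensitive) of the 5-point dose–response (1 nM–10 µM, 72 h, CellTiter-Glo) in primary AML/CML patient mononuclear cells. 0.030103 is the floor for inactive compounds.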

[7] = tested on: myeloid leukemia patient primary cells Pat.4; assay: as above
Experimental: as §2

[8] = tested on: myeloid leukemia patient primary cells Pat.5; assay: as above
Experimental: as §2

[9] = tested on: myeloid leukemia patient primary cells Pat.12; assay: as above
Experimental: as §2

[10] = tested on: myeloid leukemia patient primary cells Pat.9; assay: as above
Experimental: as §2

[11] = tested on: myeloid leukemia patient primary cells Pat.11; assay: as above
Experimental: as §2

[12] = tested on: myeloid leukemia patient primary cells Pat.15; assay: as above
Experimental: as §2

[13] = tested on: myeloid leukemia patient primary cells Pat.3; assay: as above
Experimental: as §2

[14] = tested on: myeloid leukemia patient primary cells Pat.10; assay: as above
Experimental: as §2

[15] = tested on: myeloid leukemia patient primary cells Pat.2; assay: as above
Experimental: as §2

[16] = tested on: myeloid leukemia patient primary cells Pat.1; assay: as above
Experimental: as §2

[17] = tested on: myeloid leukemia patient primary cells Pat.7; assay: as above
Experimental: as §2

[18] = tested on: myeloid leukemia patient primary cells Pat.6; assay: as above
Experimental: as §2

[19] = tested on: myeloid leukemia patient primary cells Pat.14; assay: as above
Experimental: as §2

[20] = tested on: myeloid leukemia patient primary cells Pat.8; assay: as above
Experimental: as §2

N#CC(C#N)=NNc1ccc(OC(F)(F)F)cc1 [FCCP]
cell viability [%]
Details	LAMA-84	[1]	[2]	[3]	[4]	[5]
1 nM	100	> 100	98	91.2	66.5	87
10 nM	97.6	93.3	97.3	99.1	64	97.4
100 nM	94.2	99.7	> 100	94.5	50.5	88.8
1000 nM	79.1	89.5	82.4	81.5	7.03	65.5
10000 nM	0.398	36.1	9.9	3.23	2.16	20

cell viability [%], HL-60
Details	0.001 µM	0.01 µM	0.1 µM	1 µM	10 µM
co-treatment: AZD3965 100 nM	101	102	82.8	110	8.55
co-treatment: DMSO vehicle	99.6	94.6	99.9	104	10.3
co-treatment: GSK2194069 100 nM	97.2	102	80.2	102.3	13.8
co-treatment: pictilisib 100 nM	98.3	98.5	94.6	104	9.69

Details	area under dose-response curve
[6]	0.211
[7]	0.229
[8]	0.825
[9]	0.0898
[10]	0.361
[11]	0.158
[12]	0.159
[13]	0.361
[14]	0.466
[15]	0.0623
[16]	0.214
[17]	0.366
[18]	0.175
[19]	0.316
[20]	0.116

Nc1nc(Cl)nc2c1ncn2[C@H]1C[C@H](O)[C@@H](CO)O1 [Cladribine]
cell viability [%]
Details	LAMA-84	[1]	[2]	[3]	[4]	[5]
1 nM	112	94.5	> 100	95.4	95	95.1
10 nM	100	83.1	96.6	82.7	33.1	74.3
100 nM	51.1	54.4	76.6	88.4	0.135	19.2
1000 nM	5.53	20.5	59.8	60.2	2.16	6.84
10000 nM	1.72	7.86	63.8	13.9	6.29	6.92

cell viability [%], HL-60
Details	0.001 µM	0.01 µM	0.1 µM	1 µM	10 µM
co-treatment: AZD3965 100 nM	100	104	67.648	3.68	3.27
co-treatment: DMSO vehicle	101	104	88.9	3.39	4.06
co-treatment: GSK2194069 100 nM	98.2	101	62.7	3.78	4.3
co-treatment: pictilisib 100 nM	98.9	102	37.1	3.81	3.84

Details	area under dose-response curve
[6]	0.7
[7]	0.689
[8]	0.799
[9]	0.438
[10]	0.762
[12]	0.193
[13]	0.652
[14]	0.768
[15]	0.463
[16]	< 0.0301
[17]	0.62
[18]	0.611
[19]	0.616
[20]	0.609

Oc1ccc(Nc2nc(-c3ccc(Cl)cc3)cs2)cc1 [SKI II]
cell viability [%]
Details	LAMA-84	[1]	[2]	[3]	[4]	[5]
1 nM	105	89.9	89.5	69.6	49.5	75.2
10 nM	99.9	92.9	97.2	93.3	47.7	98.7
100 nM	96.1	95.8	98.4	85.9	> 100	95.4
1000 nM	96.4	> 100	92	87.3	9.05	93.1
10000 nM	34.2	53.9	79.3	33.6	81.9	16.2

cell viability [%], HL-60
Details	0.001 µM	0.01 µM	0.1 µM	1 µM	10 µM
co-treatment: AZD3965 100 nM	101.4	103	104	104	15.7
co-treatment: DMSO vehicle	102	105	97.6	100	22.1
co-treatment: GSK2194069 100 nM	99	94.2	99.8	101	30.7
co-treatment: pictilisib 100 nM	96.5	102	101	88	3.95

Details	area under dose-response curve
[6]	0.0533
[7]	0.0605
[9]	0.0339
[10]	0.341
[11]	< 0.0301
[12]	0.0495
[13]	0.238
[14]	0.291
[15]	0.0376
[16]	0.054
[17]	0.424
[18]	0.0895
[19]	0.304
[20]	0.054

Reference: the supplement of paper PMC8671470
